Laboratory results as given in PubChem BioAssay (NCI).
Values joined by “and” are separate entries in the source; they are usually repeats but may differ in a detail not shown here. Equal values may be shown once.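 Step 1: Grow cells in 96-well plates. Step 2: Expose to compound for 48 hours at 5 concentrations. Step 3: Interpolate endpoints linearly; if unreached, use highest concentration. GI50 = concentration required for 50% inhibition of growth. TGI: concentration producing complete growth inhibition.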

Legend:
Test in all cases: DTP human tumour cell line panel, 48 h
[1] = system: ACHN renal
[2] = system: COLO 205 colon
[3] = system: HS 578T breast
[4] = system: HT29 colon
[5] = system: IGROV1 ovarian
[6] = system: M14 melanoma
[7] = system: MALME-3M melanoma
[8] = system: MDA-MB-231 breast
[9] = system: RPMI-8226 leukemia
[10] = system: SN12C renal

| Compound | TGI [1] | TGI [2] | TGI [3] | TGI [4] [µM] | TGI [5] | TGI [6] | TGI [7] [µM] | TGI [8] | TGI [9] | TGI [10] | GI50 [1] | GI50 [2] | GI50 [3] | GI50 [4] [µM] | GI50 [5] | GI50 [6] | GI50 [7] [µM] | GI50 [8] | GI50 [9] | GI50 [10] |
| --- | --- | --- | --- | --- | --- | --- | --- | --- | --- | --- | --- | --- | --- | --- | --- | --- | --- | --- | --- | --- |
| Cn1c(C(C)(C)OC(=O)Oc2ccccc2)cnc1[N+](=O)[O-] | > 100 µM | > 100 µM | > 100 µM | > 100 | > 100 µM | > 100 µM | > 100 | > 100 µM | 77.1 µM | > 100 µM | – | – | – | – | – | – | – | – | – | – |
| CN(C)c1ccc(/C=N/NC(=O)c2cccc3ccccc23)c(Cl)c1 | > 100 µM | > 100 µM | > 100 µM | 15.8 | > 100 µM | > 100 µM | 69.2 | > 100 µM | > 100 µM | > 100 µM | 5.65 µM | 2.88 µM | 1.27 µM | 0.503 | 3.44 µM | 0.763 µM | 1.29 | 11.5 µM | 2.19 µM | 8.85 µM |
| NC(CO)C(=O)NCC(=O)O (centres undefined) | > 100 µM | > 100 µM | > 100 µM | > 100 | > 100 µM | > 100 µM | > 100 | > 100 µM | > 100 µM | > 100 µM | – | – | – | – | – | – | – | – | – | – |
| CCN1C(=O)N(CC)C2C1NN=c1s/c(=C\c3cccc([N+](=O)[O-])c3)c(=O)n12 (centres undefined) | > 100 µM | 0.538 µM | > 100 µM | > 100 | > 100 µM | > 100 µM | > 100 | – | > 100 µM | > 100 µM | 0.0662 µM | 0.0663 µM | 0.0502 µM | 0.0387 | 0.162 µM | 0.0533 µM | 0.0812 | 0.231 µM | 0.127 µM | 0.149 µM |
| COc1ccc(/C(=N/O)c2cc(OC)c(OC)c(OC)c2)c(OC)c1N | > 100 µM | 13.5 µM | > 100 µM | > 100 | > 100 µM | > 100 µM | > 100 | > 100 µM | > 100 µM | > 100 µM | 17.8 µM | 3 µM | 4.74 µM | 3.54 | 7.71 µM | 2.7 µM | 4.22 | 5.36 µM | 5.35 µM | 15.4 µM |
| COc1cc(C2C3=C(COC3=O)Nc3cc4c(cc32)OCO4)cc2c1OCO2 (centres undefined) | > 100 µM | 0.172 µM | > 100 µM | 3.21 | > 100 µM | 0.0878 µM | > 100 | > 100 µM | > 100 µM | > 100 µM | 0.357 µM | 0.0735 µM | 0.0414 µM | 0.0722 | 0.127 µM | 0.03 µM | > 100 | 0.128 µM | 0.068 µM | 0.154 µM |
| CC12CCC(O)CC1=CCC1C2CCC2(C)C(c3cccnc3)=CCC12 (centres undefined) | > 100 µM | > 100 µM | > 100 µM | > 100 | > 100 µM | > 100 µM | > 100 | > 100 µM | > 100 µM | > 100 µM | > 100 µM | > 100 µM | > 100 µM | 82.2 | > 100 µM | > 100 µM | > 100 | > 100 µM | 39.1 µM | > 100 µM |
| O=C(c1ccccc1O)c1[nH]c(Cl)c(Cl)c1-n1c(C(=O)c2ccccc2O)cc(Cl)c1Cl | 9.41 µM and 9.11 µM | 2.47 µM and 3.17 µM | 10.9 µM and 9.66 µM | 12.8 | 20.5 µM and 15.1 µM | 5.9 µM and 7.76 µM | 5.18 | 5.87 µM and 2.61 µM | 4.21 µM and 1.57 µM | 11.9 µM and 11 µM | 1.54 µM and 0.591 µM | 0.703 µM and 0.757 µM | 0.849 µM and 0.623 µM | 2 | 1.54 µM and 1.45 µM | 1.46 µM and 1.44 µM | 1.37 | 1.07 µM and 0.354 µM | 0.366 µM and 0.265 µM | 0.399 µM and 0.368 µM |
| COc1cc2c(cc1O)C(c1cc(O)c(O)c(OC)c1)C(O)(C(=O)O)C(CO)C2O (centres undefined) | > 100 µM | > 100 µM | > 100 µM | > 100 | > 100 µM | > 100 µM | > 100 | > 100 µM | > 100 µM | 32.6 µM | – | – | – | – | – | – | – | – | – | – |
| CCCC#CCOC(=O)c1cc([N+](=O)[O-])cc([N+](=O)[O-])c1 | > 100 µM | > 100 µM | > 100 µM | > 100 | > 100 µM | > 100 µM | 69.1 | > 100 µM | > 100 µM | > 100 µM | – | – | – | – | – | – | – | – | – | – |
| CCCCCSC1C2C(=O)C(Br)=CC13CCNc1c(O)c4c5c(c13)=[N+]2CCC=5C=N4 (centres undefined) | 3.97 µM | 0.613 µM | 16.7 µM | 1.54 | 3.61 µM | 3.68 µM | 1.37 | 1.5 µM | 11 µM | 1.12 µM | 1.75 µM | 0.303 µM | 5.47 µM | 0.49 | 0.913 µM | 1.51 µM | 0.332 | 0.417 µM | 3.65 µM | 0.414 µM |
| C[n+]1c(/C=C/c2ccc(/C=N/NC(=O)c3ccc(C(=O)N/N=C/c4ccc(/C=C/c5cn6ccccc6[n+]5C)cc4)cc3)cc2)cn2ccccc21 | > 100 µM | > 100 µM | > 100 µM | > 100 | > 100 µM | > 100 µM | > 100 | > 100 µM | > 100 µM | > 100 µM | – | – | – | – | – | – | – | – | – | – |
| O=Nc1c(O)c2ccccc2c2ccccc12 | 7.1 µM | 3.46 µM | 5.65 µM | 7.88 | 3.51 µM | 1.6 µM | 3.03 | 5.25 µM | > 21.9 µM | 1.88 µM | 1.02 µM | 1.92 µM | 2 µM | 2.83 | 1.83 µM | 0.446 µM | 1.47 | 0.849 µM | 1.2 µM | 0.449 µM |
| Oc1c2c(c(O)c3ccccc13)C1(N=N2)c2ccccc2Oc2ccccc21 | 16 µM | 28 µM | 41.5 µM | 30.2 | 10.2 µM | 26.1 µM | 9.28 | 32.4 µM | 14.7 µM | 27 µM | – | – | – | – | – | – | – | – | – | – |
| CC(=O)c1ccc2c(c1)N(CCCN(C)C)c1ccccc1S2 | 30.6 µM | 11.7 µM | 27.8 µM | 28.4 | 44 µM | 30 µM | 38.3 | 24.8 µM | 43.3 µM | 30.8 µM | 15.5 µM | 3.32 µM | 11.6 µM | 11.2 | 18.8 µM | 14.9 µM | 17.9 | 11.1 µM | 18 µM | 14.5 µM |
